Laboratory results taken from patent publication US20240276978A1, “Method for Dispersing Live Predatory Mites of the Phytoseiulus Genus Which Are Used in Biocontrol” (Bioline Agrosciences France, priority 2020, published 2024).

Assays:
[1] = Thickening agent solution equivalent to the standard; format: physicochemical; conditions: at concentration tested (g/L): alginate 10, modified corn starch 34, amylopectin 67, carrageenans 3, chitosan 100, dextrin 46, guar 2, xanthan 2, glycerol 860, konjac 4, Carbomer 940 4, Gel Maker EMU 4.4, PVP 60, carboxymethylcellulose 30, hydroxypropylcellulose 30, calcium chloride 280, potassium chloride 280, potassium sulfate 140
Phytoseiulus persimilis = assay: "Toxicity" of thickening agent to persimilis at 12 hours; format: in vivo; conditions: concentration tested (g/L): alginate 10, modified corn starch 34, carrageenans 3, guar 2, xanthan 2, glycerol 860, konjac 4, Carbomer 940 4, Gel Maker EMU 4.4, PVP 60, carboxymethylcellulose 30
Protocol: “Non-toxic” means less than 20% of biocontrol agents dead at the end of 12 hours.
A little solution containing the persimilis is kept in order to evaluate any possible “toxicity” at 12 hours.

| Structure (SMILES) | Equivalent to the standard [1] | “Toxicity” (Phytoseiulus persimilis) |
| --- | --- | --- |
| [Ca+2].[Cl-].[Cl-] [Calcium chloride] | No | – |
| OCC(O)CO [Glycerol] | Yes | Yes |
| [Cl-].[K+] [Potassium chloride] | No | – |
| O=S(=O)([O-])[O-].[K+].[K+] [Potassium sulfate] | no | – |
